“Also recorded” adds a separate entry of the source.
Assays:
[1] = Drug exposure in human kidney organoid implanted under the rat kidney capsule after oral dosing; type: in vivo; details: 10 mg/kg PO QD for 3 consecutive days, necropsy after 3 days
Protocol: Initially a space was created under the kidney capsule with angled fine forceps. A 22G blunt needle was used to further open the space under the kidney capsule. An angled cut was made at the tip of the 18G feeding tube attached to a 1 mL syringe. The 18G feeding tube was pre-wet with APEL2 medium, and one organoid from the dish containing APEL2 with the 18G feeding tube was carefully aspirated, keeping the entire organoid close to the tip of the 18G feeding tube, and not aspirating organoid into the syringe. An 18G feeding tube containing the organoid was inserted into the space created under the kidney capsule, and the organoid was injected towards the back end of the created space. The animal was closed, and then the procedure was repeated on the second kidney. After the second transplant, the animal was closed again and allowed to recover from anesthesia. The next organoid was started to be removed from TW (2+1 spare organoids) upon closing of animal after second kidney capsule transplant.
Compound 100 was administered to animals after transplant orally, once-daily as follows:
After 3 days, necropsy was performed to study distribution of compound 100 in the animal.

AT1R transgenic rats = test: AT1R transgenic rat model of FSGS; type: in vivo; details: oral once daily 3 mg/kg or 10 mg/kg; UniNX and AngII infusion; up to 3 weeks of treatment
Protocol: The AT1R transgenic rat model of FSGS is characterized by podocyte-specific expression of human AT1R. […] See Zhou et al., Science (2017), vol. 358 (6368), 1332-1336. In the present study, pathophysiology in AT1R transgenic rats was accelerated with unilateral nephrectomy (UniNX) and minipump AngII infusion. Compound 100 was dosed orally once daily at 3 mg/kg or 10 mg/kg, and the urine protein creatinine ratio was determined at −1, 0, 1, 2, and 3 weeks of treatment.

PAN-injured rats = test: Puromycin aminonucleoside (PAN)-induced glomerular injury in rats; type: in vivo, Sprague-Dawley rats; details: for albuminuria: PAN model of glomerular injury in rats
Excerpt: The objective of this study is to evaluate the dose-dependent effects of compound 100 on PAN induced glomerular kidney injury as indexed by albuminuria. Eighty (80), male Sprague-Dawley rats weighing approximately 125-150 g and approximately 5-6 weeks of age were acquired from Charles River. They were fed a standard chow diet (Harlan 8640), housed under standard conditions, and allowed to acclimate for at least 5 days prior to study inception. On D-2, rats were placed into weight-matched treatment groups and were placed, individually housed, into metabolic cages for the balance of the study. A 24 hour baseline (Day 0) urine was collected followed by a baseline blood collection via conscious tail venous puncture. Rats were then administered vehicle or test article. Two (2) hours following administration of vehicle or test agent on Day 0, rats received an administration of (5 mL/kg, s.c.) vehicle (sterile saline) or puromycin aminonucleoside (PAN; challenge agent; 75 mg/kg) dissolved in vehicle. Intermittent (Day 4, 7 and 10) 24 hour urine volumes were determined and samples (4 samples/animal/time point; 0.5 mL/sample) were obtained. Additionally, intermittent (Day 4, 7 and 10) blood samples were collected via conscious tail venous puncture 2 hours±1 minute post-AM dose. Immediately following the last blood collection, rats were anesthetized with isoflurane, tissues harvested, and animals sacrificed. Endpoint kidney weights and indices were obtained. Urine samples were immediately flash-frozen in liquid N2 and stored at −80° C. until analyzed. Whole blood samples collected on K3EDTA were processed appropriately for the production of plasma for PK measurements.

| Structure (SMILES) | drug exposure in implanted organoid [1] | efficacy (urine protein creatinine ratio) (AT1R transgenic rats) | urinary albumin excretion (PAN-injured rats; 30 mg/kg BID dosing, at 7 and 10 days) | urinary albumin excretion (PAN-injured rats; 30 mg/kg QD dosing, at 10 days) | urinary albumin excretion (PAN-injured rats; 30 mg/kg once (QD) or twice (BID) daily, following injury with PAN) | albuminuria (PAN-injured rats) |
| --- | --- | --- | --- | --- | --- | --- |
| O=c1[nH]ncc(N2CCc3c(ncnc3Oc3ccc(F)cc3C(F)(F)F)C2)c1Cl [Compound 100, 4-chloro-5-[4-[4-fluoro-2-(trifluoromethyl)phenoxy]-5H,6H,7H,8H-pyrido[3,4-d]pyrimidin-7-yl]-2,3-dihydropyridazin-3-one] | drug exposure in the implanted organoid; also recorded: drug exposure in an implanted organoid | efficacious | Significant reductions | Significant reductions | reduced urinary albumin excretion | effective in reducing albuminuria |
| NC(=O)c1ncn([C@@H]2O[C@H](CO)[C@@H](O)[C@H]2O)c1O [Mizoribine, mizoribine, reference compound] |  |  |  |  |  | efficacious in reducing albuminuria |
